# Read-outs that look alike come from different tables or passages of the source.
# Key:
# [1] = system: hRV-86; assay: Rhinovirus type 86 antiviral assay in Hela Rh cells, MTS readout; type: cell-based, Human rhinovirus; details: Human rhinovirus sp., HRV86, HeLa Rh, Hela Rh cells; read-out: hRV-86 EC50
# [2] = system: hRV-9; assay: Rhinovirus type 9 antiviral assay in Hela Rh cells, MTS readout; type: cell-based, Human rhinovirus; details: Human rhinovirus sp., HRV9, HeLa Rh, Hela Rh cells; read-out: hRV-9 EC50
# [3] = system: genotype 1a H-77 replicon; assay: HCV-1a replicon potency in RLuc-1 cells, bioluminescence; type: cell-based
# [4] = system: hRV-42; assay: Rhinovirus type 42 antiviral assay in Hela Rh cells, MTS readout; type: cell-based, Human rhinovirus; details: Human rhinovirus sp., HRV42, HeLa Rh, Hela Rh cells; read-out: hRV-42 EC50
# [5] = system: poliovirus (PV type 3); assay: microbe, parasite or virus in culture; type: cell-based; details: Enterovirus C, read-out: PV-3 EC50
# [6] = system: hRV-29; assay: Rhinovirus type 29 antiviral assay in Hela Rh cells, MTS readout; type: cell-based; details: Human rhinovirus sp., HRV29, HeLa Rh, Hela Rh cells; read-out: hRV-29 EC50
# [7] = system: hRV-72; assay: Rhinovirus type 72 antiviral assay in Hela Rh cells, MTS readout; type: cell-based, Human rhinovirus; details: Human rhinovirus sp., HRV72, HeLa Rh, Hela Rh cells; read-out: hRV-72 EC50
# [8] = system: hRV-14; assay: Rhinovirus type 14 antiviral assay in Hela Rh cells, MTS readout; type: cell-based, Human rhinovirus; details: Rhinovirus B, HRV14, HeLa Rh, Hela Rh cells; read-out: hRV-14 EC50
# [9] = system: hRV-15; assay: Rhinovirus type 15 antiviral assay in Hela Rh cells, MTS readout; type: cell-based, Human rhinovirus; details: Human rhinovirus sp., HRV15, HeLa Rh, Hela Rh cells; read-out: hRV-15 EC50
# [10] = in vitro; details: human
# [11] = system: poliovirus (PV type 2); assay: microbe, parasite or virus in culture; type: cell-based; details: Enterovirus C, read-out: PV-2 EC50
# [12] = Cytostatic/cytotoxic effect in Hela Rh cells (rhinovirus methodology, MTS); details: human, CC50, Hela Rh cells
# [13] = system: HIV-1 strain IIIB; assay: Inhibition of replication of HIV-1 (IIIB strain) in MT-4 cells, MTT assay; type: cell-based; details: Human immunodeficiency virus 1, IIIB, MT4, 120 h; MT-4 cells, MTT assay, five days after infection, 50% protection from cytopathic effect; read-out: EC50 (μM) HIV-1 (IIIB)
# [14] = in vitro; details: African green monkey, PV CC50
# [15] = system: hRV-39; assay: Rhinovirus type 39 antiviral assay in Hela Rh cells, MTS readout; type: cell-based, Human rhinovirus; details: Human rhinovirus sp., HRV39, HeLa Rh, Hela Rh cells; read-out: hRV-39 EC50
# [16] = system: hRV-41; assay: Rhinovirus type 41 antiviral assay in Hela Rh cells, MTS readout; type: cell-based, Human rhinovirus; details: Human rhinovirus sp., HRV41, HeLa Rh, Hela Rh cells; read-out: hRV-41 EC50
# [17] = system: HIV-2 strain (ROD); assay: Inhibition of replication of HIV-2 (ROD strain) in MT-4 cells, MTT assay; type: cell-based; details: Human immunodeficiency virus 2, MT4, 120 h; MT-4 cells, MTT assay, five days after infection, 50% protection from cytopathic effect; read-out: EC50 (μM) HIV-2 (ROD)
# [18] = Cytotoxicity in HCV-1a replicon cells, Promega CellTiter-Glo cell viability assay
# [19] = system: hRV-63; assay: Rhinovirus type 63 antiviral assay in Hela Rh cells, MTS readout; type: cell-based, Human rhinovirus; details: Human rhinovirus sp., HRV63, HeLa Rh, Hela Rh cells; read-out: hRV-63 EC50
# [20] = system: poliovirus (PV type 1); assay: microbe, parasite or virus in culture; type: cell-based; details: Enterovirus C, read-out: PV-1 EC50
# [21] = system: hRV-45; assay: Rhinovirus type 45 antiviral assay in Hela Rh cells, MTS readout; type: cell-based, Human rhinovirus; details: Human rhinovirus sp., HRV45, HeLa Rh, Hela Rh cells; read-out: hRV-45 EC50
# [22] = system: hRV-2; assay: Rhinovirus type 2 antiviral assay in Hela Rh cells, MTS readout; type: cell-based, Human rhinovirus; details: Rhinovirus A, HRV2, HeLa Rh, Hela Rh cells; read-out: hRV-2 EC50
# [23] = system: hRV-70; assay: Rhinovirus type 70 antiviral assay in Hela Rh cells, MTS readout; type: cell-based, Human rhinovirus; details: Human rhinovirus sp., HRV70, HeLa Rh, Hela Rh cells; read-out: hRV-70 EC50
# [24] = in vitro; details: human, PV CC50
# [25] = system: hRV-85; assay: Rhinovirus type 85 antiviral assay in Hela Rh cells, MTS readout; type: cell-based, Human rhinovirus; details: Human rhinovirus sp., HRV85, HeLa Rh, Hela Rh cells; read-out: hRV-85 EC50
# [26] = system: infectious genotype 2a virus (a J6/JFH-1 chimera); assay: JFH-1 HCV-2a virus assay in Lunet-CD81 cells, NS3 expression readout; type: cell-based; details: J6/JFH-1 chimera, MOI of 1, 72 hours, NS3 readout; read-out: Genotype 2a Virus (Lunet-CD81) EC50
# [27] = system: genotype 1a H-77 replicon; assay: HCV genotype 1a replicon potency in GLuc-1 cells, bioluminescence; type: cell-based; details: 72 hours, average of two or more independent experiments ± std. dev; read-out: Stable replicon cell lines EC50 (μM) Genotype 1a (Gluc-1)
# [28] = system: genotype 1b replicon; assay: HCV genotype 1b replicon potency in R-luc cells, bioluminescence; type: cell-based; details: 72 hours, average of two or more independent experiments ± std. dev; read-out: Stable replicon cell lines EC50 (μM) Genotype1b (R-luc)
Structure (SMILES),EC50 [1],EC50 [2],EC50 [4],EC50 [6],EC50 [7],EC50 [8],EC50 [9],CC50 [12],EC50 [15],EC50 [16],EC50 [19],EC50 [21],EC50 [22],EC50 [23],EC50 [25],other results
"Nc1nc(N2CCN(C(=O)COc3ccc(Br)cc3)CC2)c2nc(CCc3ccc(F)cc3)sc2n1 [Example 52, 1-(4-(5-amino-2-(4-fluorophenethyl)thiazolo[5,4-d]pyrimidin-7-yl)piperazin-1-yl)-2-(4-bromophenoxy)ethanone]",> 50 µg/mL,> 50 µg/mL,> 50 µg/mL,> 50 µg/mL,> 50 µg/mL,> 50 µg/mL,> 50 µg/mL,> 50 µg/mL,30.7 µg/mL,> 50 µg/mL,> 50 µg/mL,> 50 µg/mL,15.7 µg/mL,> 50 µg/mL,21.9 µg/mL,"HCV-1a Replicon Selectivity Index ([3]; CC50/EC50, genotype 1a replicon): >1.3; EC50 ([3]; Hepatitis C virus, 72 h, read-out: HCV-1a Replicon EC50 (μM)): 35.3 µM; EC50 ([5]; HeLa): > 50 µg/mL; EC50 ([5]; Vero): 0.49 µg/mL; CC50 [10]: 95700 nM; EC50 ([11]; HeLa): 0.38 µg/mL; EC50 ([11]; Vero): 0.1 µg/mL; EC50 [13]: 2.71 µM; CC50 [14]: 111 µg/mL; EC50 [17]: > 95.7 µM; CC50 at 72 h [18]: > 44400 nM; EC50 ([20]; HeLa): 0.39 µg/mL; EC50 ([20]; Vero): 0.12 µg/mL; CC50 [24]: > 50 µg/mL"
C[C@@]1(O)[C@H](O)[C@@H](CO)O[C@H]1n1cnc2c(N)ncnc21 [2′CMA],–,–,–,–,–,–,–,–,–,–,–,–,–,–,–,EC50 [26]: 300 ± 30 nM; EC50 [27]: 0.23 ± 0.3 µM; EC50 [28]: 0.3 ± 0.02 µM
"COc1ccc(OCC(=O)N2CCN(c3nc(N)nc4sc(CCc5ccc(OC)c(OC)c5)nc34)CC2)cc1 [Example 257, 1-(4-(5-amino-2-(3,4-dimethoxyphenethyl)thiazolo[5,4-d]pyrimidin-7-yl)piperazin-1-yl)-2-(4-methoxyphenoxy)ethanone]",4.79 µg/mL,3.69 µg/mL,5.09 µg/mL,14.9 µg/mL,5.95 µg/mL,2.32 µg/mL,46.2 µg/mL,> 50 µg/mL,2.26 µg/mL,31.1 µg/mL,26.4 µg/mL,30.8 µg/mL,3.01 µg/mL,7.1 µg/mL,8.05 µg/mL,–
"Nc1nc(N2CCN(C(=O)COc3cccc([N+](=O)[O-])c3)CC2)c2nc(CCc3ccc(F)cc3)sc2n1 [Example 131, 5-amino-2-[2-(4-fluorophenyl)ethyl]-7-(4-[2-(3-nitrophenoxy)acetyl]piperazin-1-yl)-thiazolo[5,4-d]pyrimidine]",7.07 µg/mL,2.11 µg/mL,12.3 µg/mL,> 50 µg/mL,37.7 µg/mL,> 50 µg/mL,> 50 µg/mL,> 50 µg/mL,1.52 µg/mL,> 50 µg/mL,34.5 µg/mL,9.05 µg/mL,2.5 µg/mL,15.3 µg/mL,7.26 µg/mL,–
"Nc1nc(N2CCN(C(=O)COc3ccc(OC(F)(F)F)cc3)CC2)c2nc(CCc3ccc(F)cc3)sc2n1 [Example 226, 1-(4-(5-amino-2-(4-fluorophenethyl)thiazolo[5,4-d]pyrimidin-7-yl)piperazin-1-yl)-2-(4-(trifluoromethoxy)phenoxy)ethanone]",> 50 µg/mL,> 50 µg/mL,> 50 µg/mL,> 50 µg/mL,> 50 µg/mL,> 50 µg/mL,> 50 µg/mL,> 50 µg/mL,> 50 µg/mL,> 50 µg/mL,> 50 µg/mL,> 50 µg/mL,> 50 µg/mL,> 50 µg/mL,29.9 µg/mL,–

# Source: US9730944B2, “Antiviral activity of novel bicyclic heterocycles” (priority 2010, dated 2017)
